SMILES strings stand for the structures. Values joined by “and” are separate entries in the source; they are usually repeats but may differ in a detail not shown here. Identical values can stand only once. Active and inactive are the calls of the source. The rule behind the calls is not given here.

Usually IC50 stands for the point on the concentration scale where inhibition reaches its midpoint.

The target in this experiment is Perilipin-5 (Homo sapiens) + 1-acylglycerol-3-phosphate O-acyltransferase ABHD5 (Homo sapiens) (UniProt Q00G26+Q8WTS1). Briefly: ABHD5-PLIN5 interaction inhibitors, late-stage follow-up, biochemical, luminescence (AID 651761).
Chain of Perilipin-5 (Homo sapiens) + 1-acylglycerol-3-phosphate O-acyltransferase ABHD5 (Homo sapiens) (Q00G26 whole entry, looked up): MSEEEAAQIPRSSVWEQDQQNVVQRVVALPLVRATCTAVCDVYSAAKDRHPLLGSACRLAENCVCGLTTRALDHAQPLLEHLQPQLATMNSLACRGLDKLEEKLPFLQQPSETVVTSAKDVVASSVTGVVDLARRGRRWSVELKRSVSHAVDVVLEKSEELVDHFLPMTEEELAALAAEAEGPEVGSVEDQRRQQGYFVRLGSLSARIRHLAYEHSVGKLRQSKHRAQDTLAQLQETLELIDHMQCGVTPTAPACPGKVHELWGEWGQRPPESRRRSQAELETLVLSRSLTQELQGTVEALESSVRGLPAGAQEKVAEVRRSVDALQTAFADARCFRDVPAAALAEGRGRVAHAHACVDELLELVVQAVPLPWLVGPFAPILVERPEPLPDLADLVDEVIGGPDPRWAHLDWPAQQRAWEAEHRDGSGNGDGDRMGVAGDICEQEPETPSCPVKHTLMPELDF
Chain of Perilipin-5 (Homo sapiens) + 1-acylglycerol-3-phosphate O-acyltransferase ABHD5 (Homo sapiens) (Q8WTS1 whole entry, looked up): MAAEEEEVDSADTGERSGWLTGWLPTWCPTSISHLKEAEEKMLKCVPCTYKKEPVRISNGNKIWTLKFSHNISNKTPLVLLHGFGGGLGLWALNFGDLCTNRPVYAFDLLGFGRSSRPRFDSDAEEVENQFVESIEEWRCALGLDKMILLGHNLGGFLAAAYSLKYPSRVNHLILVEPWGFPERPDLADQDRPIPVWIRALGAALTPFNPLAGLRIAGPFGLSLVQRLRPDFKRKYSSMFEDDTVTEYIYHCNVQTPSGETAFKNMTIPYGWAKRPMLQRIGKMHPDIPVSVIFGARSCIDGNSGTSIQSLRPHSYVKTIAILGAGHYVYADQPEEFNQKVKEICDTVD
Regarding `CCOC(=O)c1c(NC(C)=O)sc2c1CCC(C=O)=C2Sc1ccccc1`, the IC50 is 1.79 µM. With `FC(F)(F)c1cccc(NC(=S)N(CCCN2CCCC2)Cc2cccn2Cc2ccc(Cl)cc2)c1` the entry was “inactive”; with `COc1cc(OC)cc(C(=O)NC(=S)N(Cc2ccccc2)C(C)C)c1`, 1.44 µM; with `COc1cc(C)c2sc3ccccc3c(=O)c2c1NCCN(C)C`, > 39.8 µM (inactive).

As to `CC(C)c1ccc(N2C=Nc3ccc(C(C)C)cc3C2)cc1`, the IC50 was 1.56 µM. With `CN(C)CCOC1(Cc2ccc(F)cc2)CCC(C(C)(C)C)CC1` (stereo unspecified), the IC50 was > 39.8 µM (inactive). With `O=C(/C(=C/O)N=Nc1ccc(Cl)cc1)c1ccncc1`, the concentration for half-maximal inhibition (IC50) is 9.67 µM.

Regarding `COc1cc2c(cc1OC)C(C)N(CCc1ccc(Cl)cc1)CC2` (stereo unspecified), the IC50 result is “inactive”.

Consider `CC(=O)Oc1ccc(C23c4ccccc4C2(OC(C)=O)c2cc(OC(C)=O)ccc23)cc1` (stereo unspecified), for which the IC50 was > 39.8 µM (inactive).

Regarding `CC(=O)Nc1ccc(S(=O)(=O)N2c3ccc(F)cc3CCC2C)cc1` (stereo unspecified), the IC50 is 6.48 µM. Regarding `C=C[C@]1(C)C[C@@H](OC(=O)CSCCN(CC)CC)[C@]2(C)C(C)CC[C@]3(CCC(=O)[C@H]32)[C@@H](C)[C@@H]1O` (stereo partly specified), the concentration for half-maximal inhibition (IC50) is 8.02 µM.

For the compound `CCOC(=O)c1c(NC(=O)/C=C/C(=O)O)sc(C)c1-c1ccc(C(C)(C)C)cc1`, the IC50 is 5.05 µM. `CCN(CC)CCOc1ccc(/C(=C(/Cl)c2ccccc2)c2ccccc2)cc1`: the IC50 was 1.11 µM. For `CC1=CC(C)(C)Nc2ccc(OC(=O)C(C)N3C(=O)c4ccccc4C3=O)cc21` (stereo unspecified), the IC50 was 3.02 µM. As for `Cc1cc(C)c(NC(=O)C[N+](C)(C)CC(O)COc2cccc3ccccc23)c(C)c1` (stereo unspecified), the IC50 was 4.32 µM. `CCCCOC(=O)Nc1cc(C(=O)OC)ccc1C(=O)OC`: the IC50 is 5.26 µM. With `O=C(C[n+]1cccc(CNC(=O)c2ccc(OC(F)F)cc2)c1)Nc1cccc(C(F)(F)F)c1` the entry was “inactive”; with `Cc1cc(C)c(NC(=O)CN2CCN3CCCC3C2)c(C)c1` (stereo unspecified), “inactive”; with `CN(C)CCN(Cc1ccco1)c1ccccn1`, > 39.8 µM (inactive). As for `CCCCNC(=O)Nc1ccc2c(c1)N(C)C(=O)c1ccccc1S2`, the IC50 is 3.02 µM. On to `Cc1cc(C)c2nc(NNC(=O)c3ccc(S(=O)(=O)N4CCCC(C)C4)cc3)sc2c1` (stereo unspecified), for which the IC50 is 4.11 µM. On to `O=c1[nH]c(C2CCN(S(=O)(=O)c3ccc(S(=O)(=O)NC4CC4)cc3)CC2)nc2c1nnn2Cc1ccc(F)cc1`, for which the 50% inhibitory concentration (IC50) is 3.42 µM. For `CCN(CC)CCC(C)OC(c1ccccc1)c1ccccc1` (stereo unspecified) the value was 1.79 µM; for `CC1CCN(S(=O)(=O)c2ccc(NC(=O)Cc3cccs3)cc2)CC1`, 8.64 µM.

Regarding `CC1Sc2ccc(S(=O)(=O)N3CCC(C(=O)NCc4ccc(Cl)cc4)CC3)cc2NC1=O` (stereo unspecified), the half-inhibitory concentration (IC50) is 8.56 µM. Turning to `Cc1ccc2nc3cc([N+](=O)[O-])cc([N+](=O)[O-])c3cc2c1`, the IC50 was 0.619 µM. For `CN(C)CCCN(C(=O)CCc1ccccc1)c1nc2ccc(Br)cc2s1` the value was 8.16 µM. Regarding `COCCN(CCOC)c1nc(N)c2c(N)nc3c(c2c1C#N)CC(=O)N3Cc1ccc(Cl)cc1`, the IC50 is > 39.8 µM (inactive).

On to `COc1ccc(C)c2sc(N(CCN(C)C)C(=O)/C=C/c3cccs3)nc12`, for which the IC50 is 6.96 µM. For the compound `CCN(CC)CCOCCOC(=O)C1(c2ccccc2)CCCC1`, the IC50 was 0.985 µM. `CCN(CC)CCN(CC(=O)Nc1c(C)cc(C)cc1C)C(=O)c1ccccc1`: the IC50 is 5.67 µM. `NC(=NCCCCCCN=C(N)/N=C(\N)Nc1ccc(Cl)cc1)/N=C(\N)Nc1ccc(Cl)cc1`: the IC50 is 2.64 µM. As for `Cc1ccc2c(CC(=O)N3CCN(S(=O)(=O)c4ccc5c(c4)OCCO5)CC3)coc2c1`, the IC50 is 5 µM and 5.03 µM. For `CC(=O)Cc1cc(O)c2ccccc2c1OC(=O)c1ccccc1` the value was 1.52 µM; for `COc1ccc(NC(=S)N(CCCN2CCCC2)Cc2cccn2Cc2ccc(Cl)cc2)cc1Cl`, “inactive”; for `Cc1nc2c(o1)CCc1ccccc1C2N1CCN(C)CC1` (stereo unspecified), 2.75 µM. For `O=c1[nH]c(C2CCN(S(=O)(=O)c3ccc(F)cc3)CC2)nc2c1nnn2Cc1ccc2c(c1)OCCO2` the value was “inactive”; for `CCN(CC)CCNC(=O)c1ccc(NC(=O)c2cn(-c3ccccc3)nc2-c2cccs2)cc1`, “inactive”. Consider `CC1CCN(S(=O)(=O)c2ccc(NC(=O)Cc3ccccc3)cc2)CC1`, for which the IC50 was 8.77 µM.

For `CN(C)CCCN(C(=O)CCc1ccccc1)c1nc2ccc(Cl)cc2s1`, the IC50 was 7.07 µM. For `CC(CCc1ccco1)NC(=O)CCc1nnc2ccc(NCc3ccccc3Cl)nn12` (stereo unspecified) the value was 1.01 µM; for `CCCNC(=O)Nc1ccc2c(c1)N(C)C(=O)c1ccccc1S2`, 7.42 µM; for `CN1CCC(=C2c3ccccc3CC(=O)c3sccc32)CC1`, > 39.8 µM (inactive). For `CCOc1cc(N)c(Cl)cc1C(=O)NCC1CN(Cc2ccc(F)cc2)CCO1` (stereo unspecified), the IC50 was 1.34 µM.

Take `CC(=O)Cc1cc(O)c2ccccc2c1OC(=O)c1ccc(Br)cc1`: the IC50 is 2.68 µM. In the case of `COc1ccccc1-c1cc(C(=O)NC2CCN(C)CC2)c2ccc(Cl)c(C)c2n1`, the IC50 result is “inactive”.

The values above are taken from PubChem BioAssay AID651761 (The Scripps Research Institute Molecular Screening Center, 2012).
